# Results as given in PubChem BioAssay AID1963970 (Molecular Pharmacology Branch, DTP, NCI, 2024).
# System: 931267-113-T-J1-PDC multicell spheroid viability
# Test: Anticancer human tumor 931267-113-T-J1-PDC patient-derived colon adenocarcinoma cell line growth inhibition [PI3K]
# Conditions: for IC50: curve of first compound; for viability, T/C: stronger effect = lower value
# In short: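 Stroma-containing spheroids: tumor line, pooled-donor HUVEC, hMSC. Treatments: targeted agents with PI3K inhibitors. Dosing: clinically relevant, half-log spacing, 10 microM ceiling without known Cmax. Read-out: cell viability.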
# [1] = second compound 0.0316 µM, first compound 0.0316 µM
# [2] = second compound 0.0316 µM, first compound 0.1 µM
# [3] = second compound 0.0316 µM, first compound 0.316 µM
# [4] = second compound 0.0316 µM, first compound 1 µM
# [5] = second compound 0.1 µM, first compound 0.0316 µM
# [6] = second compound 0.1 µM, first compound 0.1 µM
# [7] = second compound 0.1 µM, first compound 0.316 µM
# [8] = second compound 0.1 µM, first compound 1 µM
# [9] = second compound 0.316 µM, first compound 0.0316 µM
# [10] = second compound 0.316 µM, first compound 0.1 µM
# [11] = second compound 0.316 µM, first compound 0.316 µM
# [12] = second compound 0.316 µM, first compound 1 µM
# [13] = second compound 1 µM, first compound 0.0316 µM
# [14] = second compound 1 µM, first compound 0.1 µM
# [15] = second compound 1 µM, first compound 0.316 µM
# [16] = second compound 1 µM, first compound 1 µM
# [17] = second compound 3.16 µM, first compound 0.0316 µM
# [18] = second compound 3.16 µM, first compound 0.1 µM
# [19] = second compound 3.16 µM, first compound 0.316 µM
# [20] = second compound 3.16 µM, first compound 1 µM
# [21] = second compound 10 µM, first compound 0.0316 µM
# [22] = second compound 10 µM, first compound 0.1 µM
# [23] = second compound 10 µM, first compound 0.316 µM
# [24] = second compound 10 µM, first compound 1 µM
# [25] = second compound 0.0316 µM, first compound 0.00316 µM
# [26] = second compound 0.0316 µM, first compound 0.01 µM
# [27] = second compound 0.1 µM, first compound 0.00316 µM
# [28] = second compound 0.1 µM, first compound 0.01 µM
# [29] = second compound 0.316 µM, first compound 0.00316 µM
# [30] = second compound 0.316 µM, first compound 0.01 µM
# [31] = second compound 1 µM, first compound 0.00316 µM
# [32] = second compound 1 µM, first compound 0.01 µM
# [33] = second compound 3.16 µM, first compound 0.00316 µM
# [34] = second compound 3.16 µM, first compound 0.01 µM
# [35] = second compound 10 µM, first compound 0.00316 µM
# [36] = second compound 10 µM, first compound 0.01 µM
# 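Also: viability read 7 days after compound addition.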
smiles,measurement,setting,value
CC(C)NCC(C(=O)N1CCN(c2ncnc3c2C(C)CC3O)CC1)c1ccc(Cl)cc1 (stereo unspecified) + Cc1nc(NC(=O)N2CCCC2C(N)=O)sc1-c1ccnc(C(C)(C)C(F)(F)F)c1,IC50,second compound 0.0316 µM,> 10 µM
same,IC50,second compound 0.1 µM,> 10 µM
same,IC50,second compound 0.316 µM,> 10 µM
same,IC50,second compound 1 µM,> 10 µM
same,IC50,second compound 3.16 µM,> 10 µM
same,IC50,second compound 10 µM,> 10 µM
same,"viability, T/C",[1],103%
same,"viability, T/C",[2],103%
same,"viability, T/C",[3],90.9%
same,"viability, T/C",[4],95.2%
same,"viability, T/C","second compound 0.0316 µM, first compound 3.16 µM",97.6%
same,"viability, T/C","second compound 0.0316 µM, first compound 10 µM",73.5%
same,"viability, T/C",[5],97.8%
same,"viability, T/C",[6],85.5%
same,"viability, T/C",[7],92.6%
same,"viability, T/C",[8],86.7%
same,"viability, T/C","second compound 0.1 µM, first compound 3.16 µM",83.5%
same,"viability, T/C","second compound 0.1 µM, first compound 10 µM",71.7%
same,"viability, T/C",[9],97.9%
same,"viability, T/C",[10],89.6%
same,"viability, T/C",[11],88.7%
same,"viability, T/C",[12],84%
same,"viability, T/C","second compound 0.316 µM, first compound 3.16 µM",80.4%
same,"viability, T/C","second compound 0.316 µM, first compound 10 µM",68.6%
same,"viability, T/C",[13],82.2%
same,"viability, T/C",[14],80.4%
same,"viability, T/C",[15],89.3%
same,"viability, T/C",[16],88.8%
same,"viability, T/C","second compound 1 µM, first compound 3.16 µM",79.9%
same,"viability, T/C","second compound 1 µM, first compound 10 µM",67.7%
same,"viability, T/C",[17],73.2%
same,"viability, T/C",[18],81.1%
same,"viability, T/C",[19],67.7%
same,"viability, T/C",[20],65%
same,"viability, T/C","second compound 3.16 µM, first compound 3.16 µM",70%
same,"viability, T/C","second compound 3.16 µM, first compound 10 µM",61%
same,"viability, T/C",[21],60.4%
same,"viability, T/C",[22],52.4%
same,"viability, T/C",[23],59%
same,"viability, T/C",[24],57.4%
same,"viability, T/C","second compound 10 µM, first compound 3.16 µM",62.8%
same,"viability, T/C","second compound 10 µM, first compound 10 µM",51.4%
CCN1CCN(Cc2ccc(Nc3ncc(F)c(-c4cc(F)c5nc(C)n(C(C)C)c5c4)n3)nc2)CC1 + Cc1nc(NC(=O)N2CCCC2C(N)=O)sc1-c1ccnc(C(C)(C)C(F)(F)F)c1,IC50,second compound 0.0316 µM,> 1 µM
same,IC50,second compound 0.1 µM,> 1 µM
same,IC50,second compound 0.316 µM,> 1 µM
same,IC50,second compound 1 µM,> 1 µM
same,IC50,second compound 3.16 µM,> 1 µM
same,IC50,second compound 10 µM,> 1 µM
same,"viability, T/C",[25],91.7%
same,"viability, T/C",[26],99.6%
same,"viability, T/C",[1],100%
same,"viability, T/C",[2],103%
same,"viability, T/C",[3],94.3%
same,"viability, T/C",[4],86.2%
same,"viability, T/C",[27],98%
same,"viability, T/C",[28],97.1%
same,"viability, T/C",[5],102%
same,"viability, T/C",[6],96.5%
same,"viability, T/C",[7],84.6%
same,"viability, T/C",[8],84.5%
same,"viability, T/C",[29],91.2%
same,"viability, T/C",[30],81.2%
same,"viability, T/C",[9],96.1%
same,"viability, T/C",[10],91.8%
same,"viability, T/C",[11],81%
same,"viability, T/C",[12],75.1%
same,"viability, T/C",[31],69.4%
same,"viability, T/C",[32],83.1%
same,"viability, T/C",[13],79.7%
same,"viability, T/C",[14],77.5%
same,"viability, T/C",[15],71.5%
same,"viability, T/C",[16],62.4%
same,"viability, T/C",[33],71.4%
same,"viability, T/C",[34],80.7%
same,"viability, T/C",[17],66.8%
same,"viability, T/C",[18],61.9%
same,"viability, T/C",[19],55.8%
same,"viability, T/C",[20],59.4%
same,"viability, T/C",[35],58.6%
same,"viability, T/C",[36],57%
same,"viability, T/C",[21],50.1%
same,"viability, T/C",[22],43.3%
same,"viability, T/C",[23],50.4%
same,"viability, T/C",[24],57.2%
Cn1ncnc1[C@H]1c2n[nH]c(=O)c3cc(F)cc(c23)N[C@@H]1c1ccc(F)cc1 + Cc1nc(NC(=O)N2CCCC2C(N)=O)sc1-c1ccnc(C(C)(C)C(F)(F)F)c1,IC50,second compound 0.0316 µM,> 0.1 µM
same,IC50,second compound 0.1 µM,> 0.1 µM
same,IC50,second compound 0.316 µM,> 0.1 µM
same,IC50,second compound 1 µM,> 0.1 µM
same,IC50,second compound 3.16 µM,> 0.1 µM
same,IC50,second compound 10 µM,> 0.1 µM
same,"viability, T/C","second compound 0.0316 µM, first compound 0.000316 µM",107%
same,"viability, T/C","second compound 0.0316 µM, first compound 0.001 µM",98.2%
same,"viability, T/C",[25],84.2%
same,"viability, T/C",[26],94.1%
same,"viability, T/C",[1],91%
same,"viability, T/C",[2],97.5%
same,"viability, T/C","second compound 0.1 µM, first compound 0.000316 µM",113%
same,"viability, T/C","second compound 0.1 µM, first compound 0.001 µM",94.8%
same,"viability, T/C",[27],107%
same,"viability, T/C",[28],98.8%
same,"viability, T/C",[5],90.2%
same,"viability, T/C",[6],75.1%
same,"viability, T/C","second compound 0.316 µM, first compound 0.000316 µM",93.9%
same,"viability, T/C","second compound 0.316 µM, first compound 0.001 µM",89.5%
same,"viability, T/C",[29],89.5%
same,"viability, T/C",[30],95%
same,"viability, T/C",[9],82%
same,"viability, T/C",[10],89.8%
same,"viability, T/C","second compound 1 µM, first compound 0.000316 µM",74.5%
same,"viability, T/C","second compound 1 µM, first compound 0.001 µM",73.7%
same,"viability, T/C",[31],86.3%
same,"viability, T/C",[32],78.5%
same,"viability, T/C",[13],79.7%
same,"viability, T/C",[14],72.1%
same,"viability, T/C","second compound 3.16 µM, first compound 0.000316 µM",78.9%
same,"viability, T/C","second compound 3.16 µM, first compound 0.001 µM",68.6%
same,"viability, T/C",[33],61.7%
same,"viability, T/C",[34],63.8%
same,"viability, T/C",[17],70.7%
same,"viability, T/C",[18],64.6%
same,"viability, T/C","second compound 10 µM, first compound 0.000316 µM",57.7%
same,"viability, T/C","second compound 10 µM, first compound 0.001 µM",55.2%
same,"viability, T/C",[35],54.2%
same,"viability, T/C",[36],51.8%
same,"viability, T/C",[21],59.2%
same,"viability, T/C",[22],52.8%
